Assay results taken from patent US8828985B2, “Carbamate and urea inhibitors of 11-beta-hydroxysteroid dehydrogenase 1” (Vitae Pharmaceuticals, Inc., priority 2008, dated 2014).
pIC50: −log10 of the molar value.

How the values were obtained:
[1] = molecular target: T1, purified recombinant 11β-HSD1 (Homo sapiens, UniProt P28845); experiment: Biological Test Example 1: inhibition of purified 11β-HSD1, Scintillation Proximity Assay; assay type: biochemical; conditions: purified recombinant 11β-HSD1 (expressed in E. coli), SPA; read-out: Biological Test Example 1 IC50 Range
T1 construct: made in house; host or cells: E. coli
Protocol: The inhibition of purified 11β-HSD1 by compounds of Formula I is measured using a Scintillation Proximity Assay. […] The reaction is then incubated for 90 minutes, and stopped by adding 50 μl of SPA bead mix (18-β-glycyrrhetinic acid, 10 μM final, 5 mg/ml protein A coated YSi SPA beads, and 1 ug/ml α-cortisol antibody (East Coast Biologics)). The plate is shaken for 120 minutes, and the radioactivity corresponding to ^3H cortisol is measured on a Wallac Microbeta.

human 11β-HSD1 [2] = molecular target: T2, human 11β-HSD1 (Homo sapiens, UniProt P28845); experiment: biochemical; conditions: Biological Test Example 2 IC50 Range, microsomes from CHO cells overexpressing human 11β-HSD1, SPA
human 11β-HSD1 [3] = molecular target: T2, human 11β-HSD1; conditions: at 100 nm

T2 sequence (P28845 whole entry): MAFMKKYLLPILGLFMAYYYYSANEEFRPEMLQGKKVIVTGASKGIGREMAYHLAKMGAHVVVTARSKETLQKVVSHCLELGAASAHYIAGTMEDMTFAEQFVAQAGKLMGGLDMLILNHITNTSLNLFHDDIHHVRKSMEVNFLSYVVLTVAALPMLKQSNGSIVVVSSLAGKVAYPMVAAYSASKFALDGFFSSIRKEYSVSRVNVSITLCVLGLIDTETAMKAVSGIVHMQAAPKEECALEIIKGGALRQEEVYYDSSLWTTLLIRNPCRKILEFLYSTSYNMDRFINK
T1 sequence (P28845 whole entry, species assumed): as the sequence (P28845 whole entry) above

SMILES	pIC50 [1]	pIC50 (human 11β-HSD1 [2])	Biological Test Example 2 Average % inhibition at 100 nm (human 11β-HSD1 [3])
CC(C)(C)OC(=O)NCC1CN(C(=O)NC2C3CC4CC(C3)CC2C4)C1 (stereo not shown) [Example 52, tert-butyl (1-(2-adamantylcarbamoyl)azetidin-3-yl)methylcarbamate]	> 7.00	–	–
CC(C)(C)OC(=O)NCC1CN(C(=O)OC2C3CC4CC(C3)CC2C4)C1 (stereo not shown) [Example 1, 2-adamantyl 3-((tert-butoxycarbonylamino)methyl)azetidine-1-carboxylate]	> 7.00	–	–
CC(C)(C)OC(=O)N[C@@H]1CCCN(C(=O)OC2C3CC4CC(C3)CC2C4)C1 (stereo partly drawn) [Example 8, (3R)-(2-adamantyl) 3-(tert-butoxycarbonylamino)piperidine-1-carboxylate]	> 7.00	–	–
CC(C)(C)OC(=O)N[C@H]1CCN(C(=O)NC2C3CC4CC(C3)CC2C4)C1 (stereo partly drawn) [Example 47, (S)-tert-butyl 1-(2-adamantylcarbamoyl)pyrrolidin-3-ylcarbamate]	6.00 to 7.00	–	–
CC(C)(C)OC(=O)N[C@H]1CCCN(C(=O)NC2C3CC4CC(C3)CC2C4)C1 (stereo partly drawn) [Example 57, (S)-tert-butyl 1-(2-adamantylcarbamoyl)piperidin-3-ylcarbamate]	> 7.00	–	–
COC(=O)N[C@@H]1CCN(C(=O)NC2C3CC4CC(C3)CC2C4)C1 (stereo partly drawn) [Example 48, (R)-methyl 1-(2-adamantylcarbamoyl)pyrrolidin-3-ylcarbamate]	6.00 to 7.00	–	–
CC(C)(C)OC(=O)NC[C@@H]1CCN(C(=O)NC2C3CC4CC(C3)CC2C4)C1 (stereo partly drawn) [Example 54, (S)-tert-butyl (1-(2-adamantylcarbamoyl)pyrrolidin-3-yl)methylcarbamate]	> 7.00	–	–
CC(C)(C)OC(=O)N1CCC2CN(C(=O)OC3C4CC5CC(C4)CC3C5)CC21 (racemic) [Example 11, (±)-1-tert-butyl 5-(2-adamantyl) hexahydropyrrolo[3,4-b]pyrrole-1,5-dicarboxylate]	> 7.00	–	–
CC(C)(C)OC(=O)NC1CN(C(=O)NC2C3CC4CC(C3)CC2C4)C1 (stereo not shown) [Example 51, tert-butyl 1-(2-adamantylcarbamoyl)azetidin-3-ylcarbamate]	> 7.00	–	–
N#Cc1ccc(N[C@@H]2CCN(C(=O)OC3C4CC5CC3CC(C(=O)NC3CCCCC3)(C5)C4)C2)nc1 (single isomer, unassigned) [Example 117 Isomer 1]	–	< 7.00	17.85%
CC(C)(C)OC(=O)N1CCCC12CCN(C(=O)OC1C3CC4CC1CC(C(N)=O)(C4)C3)C2 (single isomer, unassigned) [Example 30 Isomer 1, 1-tert-butyl 7-(cis-1-carbamoyl-4-adamantyl) 1,7-diazaspiro[4.4]nonane-1,7-dicarboxylate]	–	< 7.00	15.9%
CC(C)(C)OC(=O)N[C@@H]1CCN(C(=O)NC2C3CC4CC(C3)CC2C4)C1 (stereo partly drawn) [Example 46, (R)-tert-butyl 1-(2-adamantylcarbamoyl)pyrrolidin-3-ylcarbamate]	> 7.00	–	–
CC(C)(C)OC(=O)NC1(Cc2ccccc2)CCN(C(=O)OC2C3CC4CC2CC(C(N)=O)(C4)C3)C1 (single isomer, unassigned) [Example 29 Isomer 1, (cis-1-carbamoyl-4-adamantyl) 3-benzyl-3-(tert-butoxycarbonylamino)pyrrolidine-1-carboxylate]	–	< 7.00	41.2%
CC(C)(C)OC(=O)NCC1CN(C(=O)OC2C3CC4CC2CC(C(N)=O)(C4)C3)C1 (single isomer, unassigned) [Example 17 Isomer 2, (trans-1-carbamoyl-4-adamantyl) 3-((tert-butoxycarbonylamino)methyl)azetidine-1-carboxylate]	–	> 7.00	92.8%
NC(=O)C12CC3CC(C1)C(OC(=O)N1CC[C@@H](NC(=O)OCc4ccccc4)C1)C(C3)C2 (single isomer, unassigned) [Example 25 Isomer 1]	–	< 7.00	45.6%
CC1(NC(=O)OC(C)(C)C)CCN(C(=O)OC2C3CC4CC2CC(C(N)=O)(C4)C3)C1 (single isomer, unassigned) [Example 22 Isomer 2.1, (trans-1-carbamoyl-4-adamantyl) 3-(tert-butoxycarbonylamino)-3-methylpyrrolidine-1-carboxylate]	–	> 7.00	88.5%
CC(C)(C)OC(=O)N[C@@H]1CCCN(C(=O)NC2C3CC4CC(C3)CC2C4)C1 (stereo partly drawn) [Example 56, (R)-tert-butyl 1-(2-adamantylcarbamoyl)piperidin-3-ylcarbamate]	> 7.00	–	–
CN(C(=O)OC(C)(C)C)C1CCN(C(=O)NC2C3CC4CC(C3)CC2C4)C1 (stereo not shown) [Example 55, tert-butyl 1-(2-adamantylcarbamoyl)pyrrolidin-3-yl(methyl)carbamate]	> 7.00	–	–
CC1(NC(=O)OC(C)(C)C)CCN(C(=O)OC2C3CC4CC2CC(C(N)=O)(C4)C3)C1 (single isomer, unassigned) [Example 22 Isomer 1, (cis-1-carbamoyl-4-adamantyl) 3-(tert-butoxycarbonylamino)-3-methylpyrrolidine-1-carboxylate]	–	< 7.00	15.7%
CC(C)OC(=O)N[C@@H]1CCN(C(=O)OC2C3CC4CC2CC(C(N)=O)(C4)C3)C1 (single isomer, unassigned) [Example 24 Isomer 2]	–	> 7.00	87.4%
CC(C)(C)OC(=O)NC1(Cc2ccccc2)CCN(C(=O)OC2C3CC4CC2CC(C(N)=O)(C4)C3)C1 (single isomer, unassigned) [Example 29 Isomer 2.2, (trans-1-carbamoyl-4-adamantyl) 3-benzyl-3-(tert-butoxycarbonylamino)pyrrolidine-1-carboxylate]	–	> 7.00	89.3%
CC(C)(C)OC(=O)N1CCC2CN(C(=O)OC3C4CC5CC3CC(C(N)=O)(C5)C4)CC21 (single isomer, unassigned) [Example 23 Isomer 2, 1-tert-butyl 5-(trans-1-carbamoyl-4-adamantyl)hexahydropyrrolo[3,4-b]pyrrole-1,5-dicarboxylate]	–	> 7.00	94.4%
CC(C)OC(=O)N[C@@H]1CCN(C(=O)OC2C3CC4CC2CC(C(N)=O)(C4)C3)C1 (single isomer, unassigned) [Example 24 Isomer 1]	–	< 7.00	2.0%
CC(C)(C)OC(=O)NCC1CN(C(=O)OC2C3CC4CC2CC(C(N)=O)(C4)C3)C1 (single isomer, unassigned) [Example 17 Isomer 1, (cis-1-carbamoyl-4-adamantyl) 3-((tert-butoxycarbonylamino)methyl)azetidine-1-carboxylate]	–	< 7.00	22.1%
N#Cc1ccc(N[C@@H]2CCN(C(=O)OC3C4CC5CC3CC(C(=O)NC3CCCCC3)(C5)C4)C2)nc1 (single isomer, unassigned) [Example 117 Isomer 2]	–	> 7.00	63.1%
CC(C)COC(=O)NC1CCN(C(=O)OC2C3CC4CC2CC(C(N)=O)(C4)C3)C1 (single isomer, unassigned) [Example 18 Isomer 2, (trans-1-carbamoyl-4-adamantyl) (3R-(isobutoxycarbonylamino)pyrrolidine-1-carboxylate)]	–	> 7.00	95.0%
CC(C)(C)OC(=O)NC1(Cc2ccccc2)CCN(C(=O)OC2C3CC4CC2CC(C(N)=O)(C4)C3)C1 (single isomer, unassigned) [Example 29 Isomer 2, (trans-1-carbamoyl-4-adamantyl) 3-benzyl-3-(tert-butoxycarbonylamino)pyrrolidine-1-carboxylate]	–	> 7.00	90.8%
CC(C)(C)OC(=O)NC1CCN(C(=O)NC2C3CC4CC(C3)CC2C4)CC1 (stereo not shown) [Example 53, tert-butyl 1-(2-adamantylcarbamoyl)piperidin-4-ylcarbamate]	6.00 to 7.00	–	–
